Data: patent US11814341B2, “Non-peptidic cell-penetrating motifs” (Ohio State Innovation Foundation, priority 2018, dated 2023)

Legend:
HeLa cells [1] = assay: JC-10 mitochondrial membrane potential assay; settings: 20 μM, 24 h; above the normal value
Experimental: Procedure: Mitochondria membrane potential assay. Experiments were carried out by using JC-10 Mitochondrial Membrane Potential Assay kit (Abcam, ab112134) according to the manufacturer's manual. Briefly, HeLa cells (2×10^4 cells/well) were seeded in a 96-well plate (black wall clear bottom) in 90 μL of DMEM containing 10% FBS and 1% penicillin/streptomycin and allowed to attach overnight. […] Without washing, cells were treated with 50 μL of a JC-10 dye solution (30 μM in buffer A) for 60 min. Fifty μL of buffer B was added and the fluorescence intensities at Ex/Em=490/520 nm and 540/590 nm were recorded on a microplate reader (Infinite M1000Pro).
CPM1-3 was next tested for a potential effect on mitochondrial membrane potential, a key indicator of cell health or injury. HeLa cells untreated or treated with CPM were labeled with JC-10, a dye molecule which emits green fluorescence inside the cytosol but red fluorescence inside the mitochondria. The ratio of green/red fluorescence (F520/F590) provides an indicator of the mitochondrial membrane potential.

HeLa cells [2] = assay: MTT viability assay, anti-cancer activity of Hsp90 inhibitors; type: cell-based; settings: 24 h

Compound | increase in the F520/F590 ratio (HeLa cells [1]) | maximum reduction in HeLa cell viability (HeLa cells [2]; 0-10 μM) | inhibitor concentration at which maximal inhibition was reached (HeLa cells [2])
p-trifluoromethoxy carbonyl cyanide phenyl hydrazone [FCCP] | up to 7 fold | – | –
COC1=C2C[C@@H](C)C[C@H](OC)[C@H](O)[C@@H](C)/C=C(\C)[C@H](OC(N)=O)[C@@H](OC)/C=C\C=C(/C)C(=O)NC(=CC1=O)C2=O [GA, geldanamycin] | – | ~40% | 0.3 µM
